The text below walks through data of ChEMBL document CHEMBL1136041, “Capped dipeptide alpha-ketoacid inhibitors of the HCV NS3 protease” (Bioorg Med Chem Lett, 2002).

SMILES strings stand for the structures. Where only a bound is given, the exact number is not on record here.

The target in this assay is Hepatitis C virus serine protease, NS3/NS4A (Hepatitis C virus, UniProt A3EZI9+D2K2A8). Put plainly: Inhibitory concentration evaluated against NS3/4A protease. Format: protein-complex assay, Hepacivirus hominis.
Chain of Hepatitis C virus serine protease, NS3/NS4A (D2K2A8 whole entry): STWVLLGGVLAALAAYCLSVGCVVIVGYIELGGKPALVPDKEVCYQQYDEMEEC
Chain of Hepatitis C virus serine protease, NS3/NS4A (A3EZI9 whole entry): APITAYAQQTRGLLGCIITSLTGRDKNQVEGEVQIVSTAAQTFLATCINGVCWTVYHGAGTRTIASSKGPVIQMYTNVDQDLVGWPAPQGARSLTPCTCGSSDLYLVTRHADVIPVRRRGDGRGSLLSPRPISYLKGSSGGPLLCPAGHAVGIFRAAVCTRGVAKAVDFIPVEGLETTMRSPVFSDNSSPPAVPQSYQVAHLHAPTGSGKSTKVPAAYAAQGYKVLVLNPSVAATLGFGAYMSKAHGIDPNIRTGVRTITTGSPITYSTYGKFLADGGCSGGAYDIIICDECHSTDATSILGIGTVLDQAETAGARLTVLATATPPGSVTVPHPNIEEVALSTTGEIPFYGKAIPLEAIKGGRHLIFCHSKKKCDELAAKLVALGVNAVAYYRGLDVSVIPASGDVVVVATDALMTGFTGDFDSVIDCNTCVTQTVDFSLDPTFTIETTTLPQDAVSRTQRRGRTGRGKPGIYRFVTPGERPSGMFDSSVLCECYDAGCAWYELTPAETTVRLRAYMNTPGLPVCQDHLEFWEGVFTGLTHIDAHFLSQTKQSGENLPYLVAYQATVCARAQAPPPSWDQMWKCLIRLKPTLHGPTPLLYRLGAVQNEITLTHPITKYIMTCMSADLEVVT
Regarding `CC(C)C[C@H](NC(=O)C(Sc1ccccc1)c1ccccc1)C(=O)N[C@@H](CC(F)F)C(=O)C(=O)O` (some centres not stated), the IC50 (usually the midpoint of a concentration-inhibition curve) was 7 µM.
For `CC(C)C[C@H](NC(=O)Cn1c(-c2ccccc2)nc2ccccc21)C(=O)N[C@@H](CC(F)F)C(=O)C(=O)O` the value was greater than 200 µM; for `CC(C)C[C@H](NC(=O)[C@H](O)c1ccccc1Cl)C(=O)N[C@@H](CC(F)F)C(=O)C(=O)O`, 41 µM; for `CC(C)C[C@H](NC(=O)CC(c1ccccc1)c1ccccc1)C(=O)N[C@@H](CC(F)F)C(=O)C(=O)O`, greater than 200 µM.
For `COc1ccc(C(=O)N[C@@H](CC(C)C)C(=O)N[C@@H](CC(F)F)C(=O)C(=O)O)c(OC)c1OC` the value was greater than 200 µM; for `CC(C)C[C@H](NC(=O)C(Cc1ccccc1)c1ccccc1)C(=O)N[C@@H](CC(F)F)C(=O)C(=O)O` (some centres not stated), greater than 30 µM.
For `CC(C)C[C@H](NC(=O)[C@H](O)C1CCCCC1)C(=O)N[C@@H](CC(F)F)C(=O)C(=O)O` the value was 7 µM; for `CC(C)C[C@H](NC(=O)[C@H](O)c1cccs1)C(=O)N[C@@H](CC(F)F)C(=O)C(=O)O`, 18 µM; for `CC(C)C[C@H](NC(=O)[C@@H](O)c1ccccc1)C(=O)N[C@@H](CC(F)F)C(=O)C(=O)O`, greater than 100 µM.
Compound `COc1ccc(C(Oc2ccccc2)C(=O)N[C@@H](CC(C)C)C(=O)N[C@@H](CC(F)F)C(=O)C(=O)O)cc1` (some centres not stated) yielded an IC50 of 18 µM.
Regarding `COc1ccc([C@@H](O)C(=O)N[C@@H](CC(C)C)C(=O)N[C@@H](CC(F)F)C(=O)C(=O)O)cc1`, the midpoint of inhibition, the IC50, lay at 13 µM.
For `CC(C)C[C@H](NC(=O)c1cccc(Oc2ccccc2)c1)C(=O)N[C@@H](CC(F)F)C(=O)C(=O)O` the value was greater than 200 µM; for `CC(C)C[C@H](NC(=O)[C@@H](NC(=O)OC(C)(C)C)C1CCCC1)C(=O)N[C@@H](CC(F)F)C(=O)C(=O)O`, 0.38 µM; for `CC(C)C[C@H](NC(=O)[C@H](O)c1ccc(C(F)(F)F)cc1)C(=O)N[C@@H](CC(F)F)C(=O)C(=O)O`, 28 µM.
`CC(C)C[C@H](NC(=O)[C@H](O)c1ccc(Cl)cc1)C(=O)N[C@@H](CC(F)F)C(=O)C(=O)O`: the half-maximal inhibitory concentration (IC50) was 13 µM.
For `CC(C)C[C@H](NC(=O)Cn1nc(-c2ccccc2)c2ccccc2c1=O)C(=O)N[C@@H](CC(F)F)C(=O)C(=O)O` the value was greater than 200 µM.
For `CC(C)C[C@H](NC(=O)[C@H](O)c1ccccc1)C(=O)N[C@@H](CC(F)F)C(=O)C(=O)O` the value was 3 µM.
